Patent US11554105B2, “Combinations of artemisinins, BCL-2 inhibitors, and kinase inhibitors for cancer treatment” (UNIVERSITY OF MARYLAND, BALTIMORE, priority 2018, dated 2023)
“Also recorded” adds a separate entry of the source. Where two headings read alike, the source gives them in different places. Marks after values point to notes of the source that are not given here.

Experiments:
[1] = system: MOLM14, KOPN8 and RCH-ACV cell lines; assay: Kinase inhibitor drug combination screen, summary over the three cell lines; settings: for No. Cell Lines synergistically inhibited by drug 1 combined with AS and/or ART-838: >10% growth inhibition over the Bliss prediction, of three cell lines; for synergy with either AS or ART-838: growth inhibition of human leukemia cell lines
Protocol: Plates (3×384-well per set) contained 7 graded concentrations of each drug at 2× final concentration in culture media in 25 μl/well. […] Cells were plated such that each well contained 2500 cells (MOLM14) or 5000 cells (KOPN8 and RCH-ACV). […] Each plate contained two positive control wells used for background subtraction. Each plate also contained 45 wells without any drug. The background-subtracted absorbance for each well was normalized to the average of the no-drug wells from the corresponding vehicle plate.
Hits were ranked by the observed inhibition over the Bliss independence prediction.
Combinations with positive values for this Bliss difference were considered synergistic, values near zero, additive, and negative values, antagonistic.

[2] = system: mitochondrial superoxide in MOLM14 cells; assay: Mitochondrial superoxide (MitoSOX Red, flow cytometry); assay type: cell-based, human; settings: 16 h; for mitochondrial superoxide generation, drug alone: 2.25× approximate 48 h IC50, MitoSox MFI; for effect of the drug on AS-induced superoxide: drug combined with AS, each at 2.25× approximate 48 h IC50; for effect of the drug on ART-838-induced superoxide: drug combined with ART-838, each at 2.25× approximate 48 h IC50
Protocol: FIGS. 4A-4D. Effects of ART-838- and AS-containing drug combinations on MOLM14 growth and superoxide generation. […] CIs were computed as described above. CI<1 indicates synergy, CI=1, additivity, CI>1, antagonism. […] Cells were then loaded with 5 μM MitoSox for 30 min, washed, and analyzed by flow cytometry for MitoSox fluorescence (indicating mitochondrial superoxide) in the FL2 channel. Mean fluorescence intensity (MFI) was normalized to that of vehicle control (0.5% DMSO) with no pretreatment (100%, lower dotted lines). Upper dotted lines show MFI of ART-838- or AS-treated cells. Error bars represent the SEM of three independent experiments.
Cells were pretreated with NAC, Tiron, DFO, or vehicle then treated with AS, ART-838, or vehicle, as described above, then following a 16-hour drug treatment, cells were loaded with 5 μM MitoSOX Red (Invitrogen, Carlsbad, Calif.) for 30 minutes at 37° C. with 5% CO2, then analyzed using the FL2 channel of an Accuri C6 flow cytometer.
As both ART-838 and AS increased mitochondrial superoxide, and many antineoplastic drugs induce ROS generation, mitochondrial superoxide levels of MOLM14 cells treated with each of the above six antileukemic drugs were evaluated, alone and in combination with ART-838 or AS. All six drugs induced mitochondrial superoxide, although to a much lesser extent than did ART-838 (FIG. 4B) or AS (FIG. 4D).

MOLM14 cells [3] = assay: Combinations of AS, ART-838 or DHA with ABT-199, ABT-263 or ABT-737 (alamarBlue, 48 h); assay type: cell-based; settings: Homo sapiens, MOLM-14; for inhibition at 0.037 µM: MOLM14
Protocol: FIG. 12. […] Then cytotoxicity was evaluated by alamarBlue assays. Each experiment was performed in triplicate.
MOLM14 or KOPN8 cells were seeded in 96-well plates as described above for alamarBlue assays. […] AlamarBlue assays were performed as described above. Each set of drugs or drug combinations was tested in triplicate. Chou-Talalay drug combination analysis was performed as above.

human AML cell lines = assay: In vitro efficacies of artemisinin derivatives against human AML cell lines; assay type: cell-based
Protocol: (§1) Cell lines were seeded in 96-well tissue culture plates at 10^4 cells per well (myeloid leukemia lines) or 2×10^4 cells per well (lymphoid leukemia lines) in culture medium, followed by addition of drugs at the indicated concentrations. 2-4 wells per plate containing media-only were included for background subtraction. Peripheral wells were filled with sterile water to minimize the effects of evaporation.
A novel trioxane dimer allyloxime-631 (ART631) has been designed to further extend in vivo T1/2 without sacrificing antimalarial activity.

in vivo = settings: NRG (NOD-Rag1null IL2rgnull), mouse, in vivo, po
Description: FIG. 24. Concentration-time profile for 2C-ARTs with PK parameters.
FIG. 25A-25C. […] NOD-Rag1^nullIL2rg^null (NRG) mice were transplanted IV with Luc-labelled MV4; 11 cells on d10. […] FIG. 25A) MTD cyclic drug treatment schema.

MOLM14 cells [4] = assay: alamarBlue cytotoxicity assay, single drugs, 48 h; assay type: cell-based; settings: Homo sapiens, MOLM-14, MOLM14, 48 h, means of at least three experiments
Protocol: Cytotoxicity was assessed using alamarBlue assays (Life Technologies, Grand Island, N.Y.; used for IC50 determinations and all drug combinations except the drug combination screen (method described separately below)) or Trypan Blue dye exclusion (Life Technologies, Grand Island, N.Y.; used for experiments using inhibitors that could interfere with alamarBlue assay performance (NAC, Tiron, DFO)).
as §1
Results were normalized to cells treated with vehicle (0.5% DMSO) alone. IC50s were calculated using CompuSyn software and represent the means of at least three experiments performed in triplicate.

[5] = system: MOLM14-luc AML xenografts; assay: Subcutaneous MOLM14-luc xenograft growth, ARA with ART-838; assay type: in vivo, NSG mice; settings: tumor size on day 24; Ara-C 40 mg/kg/d i.p., ART-838 200 mg/kg/d p.o.
Protocol: Ara-C (40 mg/kg/d) was given i.p. on day 17, 18, 19, 20, 21 and 24. […] Mouse tumors were measured on the indicated days.
Highly immunodeficient NSG mice, obtained originally from Jackson Laboratory (Bar Harbor, Me.), were bred and housed in the UMSOM animal facilities, and handled in a laminar flow hood under aseptic conditions. […] For the human AML xenograft model, 6-12-week-old male NSG mice (>20 g) were transplanted sc with MOLM14-luc cells on day 0 and drug-treated via oral gavage, as specified in legend. Mice were monitored daily and euthanized when tumors reached an estimated mass of 2000 mg (using the formula: [length×width2]/2, assuming density=1 mg/mm3) [64].
Palpable tumors (approximately 100 mg tumor mass) appeared in mice about 2 weeks after transplantation. Mouse tumors were measured with calipers on the indicated days.

MOLM14 AML xenografts = assay: Subcutaneous MOLM14 xenograft growth, SOR with AS; assay type: in vivo, NSG mice; settings: tumor size on day 24; drugs p.o.
Protocol: FIG. 15. AS enhanced in vivo efficacy of Sorafenib (SOR) against acute leukemia xenografts in NSG mice. […] Drug or vehicle were given p.o. on day 3-7, 17-21, and 31-35 when possible. Mouse tumors were measured on the indicated days.
The NSG mice were obtained, maintained and handled as described in the paragraph immediately above. AS was also formulated in Tween 80:ethanol (7:3, v:v) and diluted 1:10 in filtered deionized water immediately before administration. For the human AML xenograft model, 6-12-week-old male NSG mice (>20 g) were transplanted sc with MOLM14 cells on day 0 and drug-treated via oral gavage, as specified in legend. Mice were monitored daily and euthanized when tumors reached an estimated mass of 2000 mg as described in the paragraph immediately above.
Palpable tumors appeared about 2 weeks after transplantation.

[6] = system: acute leukemia xenografts; assay: Acute leukemia xenografts treated with ART838 two-drug combinations; assay type: in vivo; settings: compared to vehicle or single drugs
Description: (§2) To add to the efficacy of this ART838 plus ABT199 treatment regimen, rational addition of a third low-toxicity active antileukemic agent was investigated.

MCL1 = assay: Western blot of MCL1 protein levels; assay type: cell-based, human; settings: acute leukemia / AML cell lines
Protocol: FIG. 22. ART631 increased ROS and CHOP levels, and reduced MCL1 protein levels. A) MOLM14 AML cells were pre-loaded with 5 mM ROS detection reagent CM-H2DCFDA for 30 m, pretreated with 11 mM for DFO for 60 m, then cultured with 200 nM ART631 or vehicle (DMSO) for 18 h and analyzed by flow cytometry. […] Protein was Western blotted as in FIG. 21. MCL1 protein levels were decreased and CHOP protein levels increased. C) From MOLM14 AML cells cultured as above, total RNA was isolated, cDNA synthesized, and SYBR Green qRT-PCR performed in triplicates. Ct values were normalized to housekeeping gene GAPDH and fold-change computed relative to vehicle control. DDIT3 mRNA (encoding CHOP protein) was increased. MV4; 11 AML and ML2 AML cell lines were tested with similar results.
as §2
Many acute myeloid leukemia (AML) cell lines express MCL1±BCL2 (FIG. 21). As with other ARTs, ART631 elevates AML cellular ROS (FIG. 22A), which is reduced by the iron chelator desferrioxamine (DFO). […] Culture of AML cells with ARTs increased CHOP protein and DDIT3 mRNA (encodes CHOP) levels (FIG. 22C).

MOLM14 cells [7] = assay: Chou-Talalay drug combination analysis (alamarBlue) of AS or ART-838 with antileukemic drugs; assay type: cell-based, human; settings: simultaneous 48 h, each drug at 2.25× single-drug IC50, CI<1 synergy, =1 additivity, >1 antagonism
Protocol: For each two-drug pair, dose-response curves were generated for each drug individually and for the two drugs combined. […] This design is based on the recommendation of Chou that combination experiments be performed with drugs combined in an equipotent ratio based on their respective single-drug IC50 values. Following a 48-hour incubation with each drug or drug pair, cytotoxicity assays were performed using alamarBlue as described above.
Each set of drug combinations was tested in at least three independent experiments, each in triplicate.
Sequences are depicted at the bottom of FIG. 5.

CCc1cc(Nc2nccc(-c3c(-c4ccc(OC)c(C(=O)Nc5c(F)cccc5F)c4)nc4ccccn34)n2)c(OC)cc1N1CCC(N2CCN(S(C)(=O)=O)CC2)CC1 [GSK-1904529A]
No. Cell Lines synergistically inhibited by drug 1 combined with AS and/or ART-838 [1]: 3/3

C[C@H]1[C@H](OC(=O)CCC(=O)O)O[C@@H]2O[C@@]3(C)CC[C@H]4[C@H](C)CC[C@@H]1[C@@]24OO3 [AS, artesunate]
mitochondrial superoxide generation, drug alone [2]: induced mitochondrial superoxide generation
IC50 (MOLM14 cells [3]; MOLM14 (AML) cell line): 825 nM
IC50 (human AML cell lines; median over the human AML cell lines tested (11 for AS and ART838, 4 for ART631), read-out: IC50 median): 1720 nM
IC50 (human AML cell lines; range over the human AML cell lines tested (11 for AS and ART838, 4 for ART631), read-out: IC50 range): 796 to 6260 nM
MTD at 5 d (in vivo): 200 mg/kg/day

Nc1ccn([C@@H]2O[C@H](CO)[C@@H](O)[C@@H]2O)c(=O)n1 [ARA, cytarabine]
IC50 (MOLM14 cells [4]): 286 nM
mitochondrial superoxide generation, drug alone [2]: induced mitochondrial superoxide generation
effect of the drug on AS-induced superoxide [2]: further enhanced
tumor growth inhibition, ARA plus ART-838 versus either drug alone [5]: inhibited tumor growth substantially more than did either drug alone

C[C@@H](Oc1cc(-c2cnn(C3CCNCC3)c2)cnc1N)c1c(Cl)ccc(F)c1Cl [Crizotinib]
No. Cell Lines synergistically inhibited by drug 1 combined with AS and/or ART-838 [1]: 2/3**

O=S(=O)(NCCNC/C=C/c1ccc(Br)cc1)c1cccc2cnccc12 [H-89]
No. Cell Lines synergistically inhibited by drug 1 combined with AS and/or ART-838 [1]: 2/3

COc1cccc2c1C(=O)c1c(O)c3c(c(O)c1C2=O)C[C@@](O)(C(=O)CO)C[C@@H]3O[C@H]1C[C@H](N)[C@H](O)[C@H](C)O1 [DOX, doxorubicin]
mitochondrial superoxide generation, drug alone [2]: induced mitochondrial superoxide generation
effect of the drug on ART-838-induced superoxide [2]: further enhanced
effect of the drug on AS-induced superoxide [2]: further enhanced

CNC(=O)c1cc(Oc2ccc(NC(=O)Nc3ccc(Cl)c(C(F)(F)F)c3)cc2)ccn1 [SOR, sorafenib]
effect of the drug on AS-induced superoxide [2]: reduced
tumor growth inhibition, AS plus SOR versus either drug alone (MOLM14 AML xenografts): inhibited tumor growth substantially more than did either drug alone
leukemia xenograft growth rates, drug combined with ART838 [6]: reduced leukemia xenograft growth rates
survival, drug combined with ART838 [6]: prolonged survivals
MCL1 protein levels (MCL1): large reductions; also recorded: downregulates

COc1cc([C@@H]2c3cc4c(cc3[C@@H](O[C@@H]3O[C@@H]5CO[C@@H](C)O[C@H]5[C@H](O)[C@H]3O)[C@H]3COC(=O)[C@H]23)OCO4)cc(OC)c1O [ETO, etoposide]
IC50 (MOLM14 cells [4]): 242 nM
mitochondrial superoxide generation, drug alone [2]: induced mitochondrial superoxide generation
effect of the drug on ART-838-induced superoxide [2]: further enhanced
effect of the drug on AS-induced superoxide [2]: further enhanced

Cc1ccc(S(=O)(=O)OCC(=O)Nc2ccc(C(=O)O)c(O)c2)cc1 [S31-201]
No. Cell Lines synergistically inhibited by drug 1 combined with AS and/or ART-838 [1]: 2/3

CN(C)CC[C@H](CSc1ccccc1)Nc1ccc(S(=O)(=O)NC(=O)c2ccc(N3CCN(Cc4ccccc4-c4ccc(Cl)cc4)CC3)cc2)cc1[N+](=O)[O-] [ABT-737]
No. Cell Lines synergistically inhibited by drug 1 combined with AS and/or ART-838 [1]: 3/3
synergy with either AS or ART-838 [1]: Particularly strong synergy

Nc1ncnc2c1c(-c1cccc(OCc3ccccc3)c1)cn2C1CC(CN2CCCC2)C1 (stereo not shown) [NVP-ADW742]
No. Cell Lines synergistically inhibited by drug 1 combined with AS and/or ART-838 [1]: 2/3

COc1ccc(COc2ccc(Cc3cnc(N)nc3N)cc2OC)cc1 [GW-2580]
No. Cell Lines synergistically inhibited by drug 1 combined with AS and/or ART-838 [1]: 2/3

Cn1cc(-c2ccc3nnc(C(F)(F)c4ccc5ncccc5c4)n3n2)cn1 [JNJ-38877605]
No. Cell Lines synergistically inhibited by drug 1 combined with AS and/or ART-838 [1]: 2/3

CC1(C)CCC(CN2CCN(c3ccc(C(=O)NS(=O)(=O)c4ccc(NCC5CCOCC5)c([N+](=O)[O-])c4)c(Oc4cnc5[nH]ccc5c4)c3)CC2)=C(c2ccc(Cl)cc2)C1 [ABT-199, venetoclax]
inhibition at 0.037 µM (MOLM14 cells [3]; 37 nM ABT-199 + 25 nM ART-838, read-out: growth inhibition, ABT-199 together with ART-838): 100%
inhibition at 0.037 µM (MOLM14 cells [3]; 37 nM ABT-199 + 825 nM AS, read-out: growth inhibition, ABT-199 together with AS): 100%
average inhibition over the Bliss predictions, ABT-199 plus ART-838 ([1]; average of 3/3 cell lines): 21%
average inhibition over the Bliss predictions, ABT-199 plus AS ([1]; average of 3/3 cell lines): 17%

C[C@]12O[C@H](C[C@]1(O)CO)n1c3ccccc3c3c4c(c5c6ccccc6n2c5c31)CNC4=O [LES, lestaurtinib]
combination index (CI) of the drug combined with AS (MOLM14 cells [7]): 1.5

CC1(C)CCC(c2ccc(Cl)cc2)=C(CN2CCN(c3ccc(C(=O)NS(=O)(=O)c4ccc(N[C@H](CCN5CCOCC5)CSc5ccccc5)c(S(=O)(=O)C(F)(F)F)c4)cc3)CC2)C1 [ABT-263, navitoclax]
synergy with either AS or ART-838 [1]: Particularly strong synergy

O=C(Nc1cccc(C(F)(F)F)c1)Nc1cc(S(=O)(=O)NC2CC2)ccc1-c1ccsc1 [AGI6780]
No. Cell Lines synergistically inhibited by drug 1 combined with AS and/or ART-838 [1]: 2/3**
